Experimental data: PubChem BioAssay (NCI)
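These data come from cells grown in 96-well plates and exposed to compound for 48 hours at five concentrations. At the GI50, growth is halved. TGI: total growth inhibition.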

What was measured:
Assay in all cases: NCI anticancer screen, dose series, 48 h
TK-10 renal = tested on: TK-10 renal
HOP-62 NSCLC = tested on: HOP-62 NSCLC
NCI-H460 lung = tested on: NCI-H460 lung
ACHN renal = tested on: ACHN renal
CCRF-CEM leukemia = tested on: CCRF-CEM leukemia
SF-295 CNS = tested on: SF-295 CNS
LOX IMVI melanoma = tested on: LOX IMVI melanoma
HL-60(TB) leukemia = tested on: HL-60(TB) leukemia
COLO 205 colon = tested on: COLO 205 colon
OVCAR-5 ovarian = tested on: OVCAR-5 ovarian

Structure (SMILES)	GI50 (TK-10 renal) [µM]	TGI (TK-10 renal) [µM]	GI50 (HOP-62 NSCLC) [µM]	TGI (HOP-62 NSCLC) [µM]	GI50 (NCI-H460 lung) [µM]	TGI (NCI-H460 lung) [µM]	GI50 (ACHN renal) [µM]	TGI (ACHN renal) [µM]	GI50 (CCRF-CEM leukemia) [µM]	TGI (CCRF-CEM leukemia) [µM]	GI50 (SF-295 CNS) [µM]	TGI (SF-295 CNS) [µM]	GI50 (LOX IMVI melanoma) [µM]	TGI (LOX IMVI melanoma) [µM]	GI50 (HL-60(TB) leukemia) [µM]	TGI (HL-60(TB) leukemia) [µM]	GI50 (COLO 205 colon) [µM]	TGI (COLO 205 colon) [µM]	GI50 (OVCAR-5 ovarian) [µM]	TGI (OVCAR-5 ovarian) [µM]
CC12CCC3C(CCC4Cc5[nH]c6ccccc6c5CC43C)C1CCC2O (stereo not given)	2.73	> 100	0.348	2.57	0.609	> 100	0.967	> 100	1	6.44	0.3	3.26	1.01	7.13	0.381	2.33	2.76	6.78	> 100	> 100
CC1CC(C2=CC=CCS2)=Nc2ccccc2S1 (stereo not given)		> 100		> 100		> 100		> 100		> 100		> 100		> 100		> 100		> 100		> 100
CC(C)/C=C1\CCC(CN2CCCC2)C1=O (stereo not given)		24.7		> 100		> 79.7		32.2		17.3		> 94.5		42.3		14.4		18.1		35.2
O=C[C@@H](CO)O[C@H](C=O)c1c[nH]c(=O)[nH]c1=O		355		258		508		719		973		1150		886		376		1210		379
CCOC(=O)Nc1cc2nnc(-c3ccccc3)nc2c(N)n1		> 100		37.6		29.8		> 100		> 100		15.2		30.8		37.5		40.5		48.5
Clc1ncnc(Cl)c1Cl		> 100		> 100		> 100		> 100		> 100		> 100		> 100				> 100		> 100
CCSCC1CC(O)(c2ccccc2)C(c2ccccc2)C(c2ccc(Cl)cc2)O1 (stereo not given)	2.27	5.4	1.85	3.6	1.42	3.44	1.81	3.68	2.03	6.5	1.56	3.73	1.65	3.05	4.08	8.28	1.53	2.94	1.82	3.54
COc1c(C=O)c2c(c(OC)c1OC)-c1ccc(OC)c(=O)cc1[C@@H](NC(C)=O)CC2		> 100		> 100		18.7		> 100		> 100		0.449		49.8		0.0717		0.574		> 100
CC(C)(C)NNC(=O)/C(=C/c1ccc([N+](=O)[O-])cc1)NC(=O)c1ccccc1		> 100		> 100		> 100		> 100		99.1		> 100		37.2		> 100		79.2		> 100
CCOc1ccccc1NC(=O)CC1C(=O)Nc2ccccc2S1=O (stereo not given)		> 100				> 100		> 100		> 100		> 100		> 100		> 100				> 100
Cc1c(N2CCCC2)cc2c(c1NC(=O)c1ccccc1Cl)C(C)(C)CC2(C)C		23.1		28.4		26		28.4				26.8		27.4				35.2		32.2
O=C(O)C/C(=C\c1ccco1)C(=O)O		> 100		> 100				> 100				> 100		> 100		> 100		> 100		> 100
CS/C(=N\C(=S)N(C)C)N(c1ccccc1)c1nc(=[N+](C)C)ss1		> 100		52.9		25.7		> 100		8.45		57.4		18.1		5.98		7.04		
O=C(Nc1ccc(Cl)cc1Cl)C1C(=O)N(c2ccc(Cl)cc2Cl)C(=O)/C1=N\Nc1ccc([N+](=O)[O-])cc1[N+](=O)[O-] (stereo not given)		> 100		> 100		> 100		> 100		> 100		> 100				> 100		> 100		> 100
Nc1ccc2c(c1)C(=O)C(=O)c1c-2nc2ccccn12	15.3	29.3			0.561	3.12	1.22	2.46	1.77	5.27	1.53	2.89	0.327	1.33	1.96	5.46	10.8	26.6	1.92	3.57
COc1ccc(OC)c(/C=N/NC(=O)Cc2csc3nc(-c4ccc(Br)cc4)cn23)c1	16.3	51.2	13.2	30.3	> 100	> 100	16.9	34.5	9.59	> 100	12.3	34.6	12.6	47.4			35.7	> 100	50.2	> 100
CCCCCCCCCCCCNC(C)=O		31.6		28.9		32.7		70		32.7		34.4		23.1				31.6		
COc1cccc2c1C(=O)C=CC2=O		28.4		34.4		32.6		10.5		1.65		29.2				1.09		20.5		33
FC(F)(F)c1nc(N2CCCC2)ncc1-c1nnnn1-c1ccc(Cl)cc1	15.4	75.6			11.7	90.2	18.7	> 100	6.71	45.4	19	> 100	15.4	49.5			10.7	27.5	> 100	> 100
